Results on 27 compounds are retold here after US9393221B2, “Methods and compounds for reducing intracellular lipid storage” (THE GENERAL HOSPITAL CORPORATION, priority 2011, dated 2016).

Counter-ions that a name gives are not always drawn.

In the first assay the test system is ATGL-KO iPSCs. Put plainly: High throughput iPSC chemical screening, Oil Red O (ORO) lipid accumulation. On Z-score: test concentration or dose not given here.
Conditions: not given
It is filed as cell-based, mouse.
As to `CCN(CC)CCCC(C)Nc1ccnc2cc(Cl)ccc12` (stereo not shown) [Chloroquine diphosphate], the Z-score was determined as 0.8301.

Staying with this assay, now noted: glycolytic switch compounds.
Turning to `[H]/N=C(/N)N/C(=N/[H])NCCc1ccccc1` [Phenformin hydrochloride], the “Rank in normalized ORO score from screen” value is listed as 524.

The same assay, now with this note: normalized ORO level vs DMSO-treated cells; compound present during 7 days differentiation, 96-well; negative = decrease in lipid accumulation.
`CC(NC(C)(C)C)C(=O)c1cccc(Cl)c1` (stereo not shown) [Bupropion hydrochloride] displayed a Z-score of 0.7193. For the compound `CC(=O)c1cc2ccccc2oc1=O` [3-Acetylcoumarin], the Z-score was −0.8473. The compound `Nc1c2c(nc3ccccc13)CCCC2O.O=C(O)/C=C\C(=O)O` (racemic) [Hydroxytacrine maleate (R,S)] came in with a Z-score of −0.525. Still for that read-out and setting: the figure for `OC(CCCN1CCCCC1)(c1ccccc1)c1ccccc1` [Diphenidol hydrochloride] is −0.7294; for `C=C(CC)C(=O)c1ccc(OCC(=O)O)c(Cl)c1Cl` [Ethacrynic acid] it is −0.302; for `Cc1cc(C2CCCCC2)n(O)c(=O)c1.NCCO` [Ciclopirox ethanolamine] it is 40.334. `OC[C@H]1O[C@@H](Oc2ccc(O)cc2)[C@H](O)[C@@H](O)[C@@H]1O` [Arbutin] registered a Z-score of 0.1806. The compound `CC(C)NCC(O)c1cc(O)cc(O)c1.CC(C)NCC(O)c1cc(O)cc(O)c1.O=S(=O)(O)O` (stereo not shown) gave a Z-score of −0.3842.

For `COc1ccc([C@@H]2CC(=O)c3c(O)cc(O[C@@H]4O[C@H](CO[C@@H]5O[C@@H](C)[C@H](O)[C@@H](O)[C@H]5O)[C@@H](O)[C@H](O)[C@H]4O)cc3O2)cc1O` [Hesperidin], the Z-score worked out at 2.254. Turning to `Cc1ccsc1/C=C/C1=NCCCN1C` [Morantel tartrate], the Z-score is listed as 1.005. In the case of `O=C1NCCN1c1ncc([N+](=O)[O-])s1` [Niridazole], the Z-score came out at 1.446. The compound `CCN[C@@H]1C[C@H](N)[C@@H](O[C@H]2OC(CN)=CC[C@H]2N)[C@H](O)[C@H]1O[C@H]1OC[C@](C)(O)[C@H](NC)[C@H]1O.CCN[C@@H]1C[C@H](N)[C@@H](O[C@H]2OC(CN)=CC[C@H]2N)[C@H](O)[C@H]1O[C@H]1OC[C@](C)(O)[C@H](NC)[C@H]1O.O=S(=O)(O)O.O=S(=O)(O)O.O=S(=O)(O)O.O=S(=O)(O)O.O=S(=O)(O)O` [Netilmicin sulfate] came in with a Z-score of 1.062.

Compound `O=c1[nH]c(=O)n([C@H]2C[C@H](O)[C@@H](CO)O2)cc1I` [Idoxuridine] came in with a Z-score of −1.0734.

Compound `Cc1c(N(C)C)c(=O)n(-c2ccccc2)n1C` [Amidopyrine] yielded a Z-score of 0.347. Take `COc1c2occc2c(OC)c2c(=O)cc(C)oc12` [Khellin]: the Z-score is listed as −0.1533. For the compound `COCC(=O)Nc1c(I)c(C(=O)NCC(O)CO)c(I)c(C(=O)N(C)CC(O)CO)c1I` (stereo not shown) [Iopromide], the Z-score worked out at 0.2481. `CN(C)CCC=C1c2ccccc2CCc2ccccc21.Cl` [Amitryptiline hydrochloride] registered a Z-score of 0.6781. `COc1ccc(C(=O)OC2C[C@H]3CC[C@@H](C2)N3C)cc1OC.Cl` (stereo partly shown) [Convolamine hydrochloride] registered a Z-score of −1.0829. Take `O=C(NCC(O)CO)c1c(I)c(C(=O)NCC(O)CO)c(I)c(N(CCO)C(=O)CO)c1I` (stereo not shown) [Ioversol]: the Z-score is 0.08392. `COc1cc(C(=O)OCCCN2CCCN(CCCOC(=O)c3cc(OC)c(OC)c(OC)c3)CC2)cc(OC)c1OC` [Dilazep dihydrochloride] came in with a Z-score of 0.1967. Turning to `CC(C)COCC(CN(Cc1ccccc1)c1ccccc1)N1CCCC1` (stereo not shown) [Bepridil hydrochloride], the Z-score is on record as −1.7961.

`O=C(O)Cc1cc(I)c(Oc2ccc(O)c(I)c2)c(I)c1` registered a Z-score of −0.9554. `[H]/N=C(/N)N/C(=N/[H])NCCc1ccccc1` [Phenformin hydrochloride] gave a Z-score of −0.2777. `C[C@H](N)[C@H](O)c1cccc(O)c1` [Metaraminol bitartrate] displayed a Z-score of −0.9024. Compound `COc1ccc(C2CNC(=O)C2)cc1OC1CCCC1` (stereo not shown) [Rolipram] came in with a Z-score of −0.7794.

`CCN(CC)Cc1cc(Nc2ccnc3cc(Cl)ccc23)ccc1O` [Amodiaquin dihydrochloride dihydrate] registered a Z-score of 0.3315.
